Laboratory results: patent US20260008758A1, “LINEAR DIPEPTIDYL PEPTIDASE 1 INHIBITORS AND USES THEREOF” (Insmed Incorporated, priority 2024, published 2026)

Key:
human DPP1 enzyme [1] = target: T1, human DPP1 enzyme (Homo sapiens (Human), UniProt P53634); assay: Human DPP1 enzyme IC50 assay; type: biochemical; details: recombinant human DPP1, H-Gly-Arg-AMC substrate 400 μM
Description: Test articles were applied to activated human DPP1 enzyme in Assay Buffer (25 mM MES pH 6.0, 50 mM NaCl, 5 mM DTT) in a total reaction volume of 125 μL. 25 μL of compound in Assay Buffer plus 5% DMSO was first added to 50 μL of activated human DPP1 enzyme at a concentration of 1 ng/μL and allowed to pre-incubate for 10 minutes at 37° C. after which 50 μL of 1000 μM H-Gly-Arg-AMC substrate (Bachem; St. Torrance, CA) was added, giving final substrate concentration of 400 μM and a final DMSO concentration of 1%. Substrate cleavage was measured for 90 minutes at 37° C., with fluorescence at Excitation/Emission 350/450 nm measured every 5 minutes. DPP1 concentration was interpolated based on its activity relative to a standard curve of activated human recombinant DPP1 enzyme. IC50 values for each compound were calculated via the XLFit (IDBS Version 5.3.1.3) Add-On to Microsoft Excel using the four parameter fit equation y={A+[(B-A)]/[1+((C/x)^D)]}, which appears as equation number 205 (4 Parameter Logistic Model or Sigmoidal Dose-Response Model) in XLFit. Default constraints were used for each Parameter.

DPP1 in HL-60 cells = DPP1 in HL-60 cells (Homo sapiens (Human), UniProt P53634); assay: DPP1 cell single-point percent inhibition testing (HL-60 cells, H-Gly-Phe-AFC substrate); type: cell-based; details: read-out: DPP1 cell % inhibition @ 5 nM, 5 nM compound, 100 μM H-Gly-Phe-AFC, 60 min pre-incubation at 37° C.
Sequence of DPP1 in HL-60 cells (P53634 25-134): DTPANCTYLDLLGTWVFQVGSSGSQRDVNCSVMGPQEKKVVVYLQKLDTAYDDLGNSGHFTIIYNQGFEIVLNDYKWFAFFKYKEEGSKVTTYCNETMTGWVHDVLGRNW
Sequence of DPP1 in HL-60 cells (P53634 231-394): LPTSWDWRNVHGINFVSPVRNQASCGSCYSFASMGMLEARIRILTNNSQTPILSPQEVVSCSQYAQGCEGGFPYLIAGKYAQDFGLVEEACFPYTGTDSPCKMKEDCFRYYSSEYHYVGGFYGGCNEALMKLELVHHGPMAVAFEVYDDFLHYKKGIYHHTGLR
Sequence of DPP1 in HL-60 cells (P53634 395-463): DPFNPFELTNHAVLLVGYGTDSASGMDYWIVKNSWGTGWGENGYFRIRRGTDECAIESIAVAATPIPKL
Description: HL-60 cells (ATCC; Manassas, VA) were maintained in RPMI-1640 supplemented with 20% heat-inactivated FBS and 1× Antibiotic Antimycotic (Cytiva; Marlborough, MA). Media was changed every three to four days and cells were not allowed to exceed 1×10^6 cells per mL. Prior to assay, cells were collected by centrifugation at 500 rcf for 3 minutes, resuspended in RPMI (with no additional supplements) and counted. Cells were diluted in RPMI to a concentration of 5×10^5 live cells per mL and transferred to black 96-well plates for assay, 60 μL per well. Test articles were diluted to 25 nM in RPMI plus 0.5% DMSO, and 20 μL was added to each assay well. Compound was allowed to pre-incubate with cells with gentle shaking at 100 rpm for 60 minutes at 37° C. in a cell culture incubator maintained at 5% CO2, after which 20 μL of 500 μM H-Gly-Phe-AFC cell-permeable substrate (MP Biomedicals; Solon, OH) in RPMI was added to each well, giving final compound concentration of 5 nM, a final substrate concentration of 100 μM and a final DMSO concentration of 0.1%. Plates were returned to the incubator with shaking at 100 rpm for 30 minutes, after which fluorescence was measured at Excitation/Emission 400/505 nm. Percent Inhibition was calculated from RFU values by first subtracting background values (wells in which RPMI was substituted for cells) from each well, and then subtracting background-subtracted RFU derived from wells that received a final concentration of 10 μM brensocatib. This value represents the non-specific substrate cleavage from the HL-60 cells, and the remaining RFU should theoretically be solely the contribution of DPP1 enzyme activity. The final percent inhibition value was calculated for each test article based on remaining RFU compared to RFU from wells that received only vehicle control.

human DPP1 enzyme [2] = target: T1, human DPP1 enzyme; assay: Human DPP1 enzyme single-point percent inhibition testing (HL-60 lysate, H-Gly-Arg-AMC substrate); type: biochemical; details: read-out: human DPP1 enzyme % inhibition @ 10 nM, 10 nM compound, 400 μM H-Gly-Arg-AMC, 10 min pre-incubation at 37° C.
Description: A crude lysate of HL-60 cells (ATCC; Manassas, VA) was used as a source of human DPP1 enzyme in the assay. Lysate was prepared in 1% Triton X-100 in PBS at a concentration of 20,000 live cells per […] of lysis buffer and was centrifuged at 16,000 rcf for 10 minutes at 4° C., after which supernatant was collected and flash-frozen in liquid nitrogen. Test articles were applied to human DPP1 enzyme in Assay Buffer (25 mM MES pH 6.0, 50 mM NaCl, 5 mM DTT) in a total reaction volume of 125 μL. 25 μL of compound diluted to 50 nM in Assay Buffer plus 5% DMSO was first added to 50 μL of HL-60 lysate diluted to contain a DPP1 enzyme concentration of roughly 1 ng/μL and allowed to pre-incubate for 10 minutes at 37° C. after which 50 μL of 1000 μM H-Gly-Arg-AMC substrate (Bachem; St. Torrance, CA) was added, giving final compound concentration of 10 nM, a final substrate concentration of 400 μM and a final DMSO concentration of 1%. Substrate cleavage was measured for 90 minutes at 37° C., with fluorescence at Excitation/Emission 350/450 nm measured every 5 minutes. DPP1 concentration was interpolated based on its activity relative to a standard curve of activated human recombinant DPP1 enzyme. Percent inhibition at 10 nM was calculated for each test article based on remaining DPP1 activity compared to enzyme activity in wells that received only vehicle control.

T1 sequence (P53634 25-134): as the sequence (P53634 25-134) above
T1 sequence (P53634 231-394): as the sequence (P53634 231-394) above
T1 sequence (P53634 395-463): as the sequence (P53634 395-463) above

Structure (SMILES)	IC50 (human DPP1 enzyme [1])	inhibition at 0.005 µM (DPP1 in HL-60 cells)	inhibition at 0.01 µM (human DPP1 enzyme [2])
Cn1c(=O)oc2ccc(-c3ccc(C[C@@H](C#N)NC(=O)CC(N)c4cocn4)cc3)cc21 (stereo partly drawn) [Compound 229, 3-amino-N-[(1S)-1-cyano-2-[4-(3-methyl-2-oxo-1,3-benzoxazol-5-yl)phenyl]ethyl]-3-(1,3-oxazol-4-yl)propanamide]	≥ 15 nM	–	–
Cn1c(=O)oc2ccc(-c3ccc(C[C@@H](C#N)NC(=O)CC(N)Cc4cocn4)cc3)cc21 (stereo partly drawn) [Compound 230, 3-amino-N-[(1S)-1-cyano-2-[4-(3-methyl-2-oxo-1,3-benzoxazol-5-yl)phenyl]ethyl]-4-(1,3-oxazol-4-yl)butanamide]	≥ 15 nM	–	–
CN1CCN[C@@H](CC(=O)N[C@H](C#N)Cc2ccc(-c3ccc4oc(=O)n(C)c4c3)cc2)C1 [Compound 253, N-[(1S)-1-cyano-2-[4-(3-methyl-2-oxo-1,3-benzoxazol-5-yl)phenyl]ethyl]-2-(4-methylpiperazin-2-yl)acetamide]	≥ 15 nM	–	–
CCN1C(=O)Cc2ccc(-c3ccc(C[C@@H](C#N)NC(=O)[C@](C)(N)C4CCCC4)cc3)cc21 [Compound 259B, (2R)-2-amino-N-[(1S)-1-cyano-2-[4-(1-ethyl-2-oxo-3H-indol-6-yl)phenyl]ethyl]-2-cyclopentylpropanamide]	≥ 15 nM	–	–
Cc1cn2cc(-c3ccc(C[C@@H](C#N)NC(=O)[C@](C)(N)C4CCC4)c(F)c3)cc2c(C)n1 [Compound 272A, (R)-2-amino-N—((S)-1-cyano-2-(4-(1,3-dimethylpyrrolo[1,2-a]pyrazin-7-yl)-2-fluorophenyl)ethyl)-2-cyclobutylpropanamide]	≥ 15 nM	–	–
CN(C)C[C@H](O)C(=O)N[C@@H](C#N)Cc1cc2c(cc1F)-c1ccc(C#N)cc1CO2 [Compound 277B, (2S)—N-[(1R)-1-cyano-2-{8-cyano-2-fluoro-6H-benzo[c]chromen-3-yl}ethyl]-3-(dimethylamino)-2-hydroxypropanamide]	≥ 15 nM	–	–
CO[C@@H](CN(C)C)C(=O)NC(C#N)Cc1cc2c(cc1F)-c1cc(C3COC3)c(F)cc1CO2 (stereo partly shown) [Compound 295]	–	≤ 76.5%	40 to 66.7%
CO[C@@H](CN(C)C)C(=O)N[C@H](C#N)Cc1cc2c(cc1F)-c1ccc(C#N)cc1CO2 [Compound 296]	–	≤ 76.5%	≤ 40%
CO[C@@H](CN(C)C)C(=O)NC(C#N)Cc1cc2c(cc1F)-c1cc3c(cc1CO2)oc(=O)n3C (stereo partly shown) [Compound 297]	–	≤ 76.5%	≤ 40%
CO[C@@H](CN(C)C)C(=O)NC(C#N)Cc1cc2c(cc1F)-c1cc(C#N)ccc1CO2 (stereo partly shown) [Compound 298]	–	≤ 76.5%	≤ 40%
CO[C@@H](CN(C)C)C(=O)NC(C#N)Cc1cc2c(cc1F)-c1ccc3oc(=O)n(C)c3c1CO2 (stereo partly shown) [Compound 299]	–	≤ 76.5%	≤ 40%
CO[C@@H](CN(C)C)C(=O)N[C@H](C#N)Cc1ccc(-c2ccc3c(c2)C2(CC3)CCN(C)CC2)cc1 [Compound 300]	–	≤ 76.5%	40 to 66.7%
CO[C@@H](CN(C)C)C(=O)N[C@H](C#N)Cc1ccc(-c2ccc3c(c2)C2(CCCN(C)C2)C(=O)N3C)cc1 (stereo partly shown) [Compound 301]	–	76.5 to 93.9%	≤ 40%
CO[C@@H](CN(C)C)C(=O)N[C@H](C#N)Cc1ccc(-c2ccc3oc(=O)n(CCN(C)C)c3c2)cc1 [Compound 302]	–	≤ 76.5%	40 to 66.7%
CO[C@@H](CN(C)C)C(=O)N[C@H](C#N)Cc1ccc(-c2cc3c(C)nc(C)cn3c2)cc1 [Compound 303]	–	≤ 76.5%	≤ 40%
CO[C@@H](CN(C)C)C(=O)N[C@H](C#N)Cc1ccc(-c2ccc3c(c2)C2(CN(C)C2)OC3=O)cc1 [Compound 304]	–	≤ 76.5%	≤ 40%
CCN1C(=O)Cc2ccc(-c3ccc(C[C@@H](C#N)NC(=O)[C@H](CN(C)C)OC)cc3)cc21 [Compound 305]	–	≤ 76.5%	≤ 40%
CO[C@@H](CN(C)C)C(=O)N[C@H](C#N)Cc1ccc(-c2ccc3c(c2)C2(CCN(C)C2)OC3=O)cc1 (stereo partly shown) [Compound 306]	–	≤ 76.5%	≤ 40%
CO[C@@H](CN(C)C)C(=O)N[C@H](C#N)Cc1ccc(-c2ccc3cnn(C4CCN(C)CC4)c3c2)cc1 [Compound 307]	–	≤ 76.5%	40 to 66.7%
CO[C@@H](CN(C)C)C(=O)N[C@H](C#N)Cc1ccc(-c2ccc3c(c2)C2(CCN(C4COC4)CC2)OC3)cc1 [Compound 308]	–	≤ 76.5%	≤ 40%
CO[C@@H](CN(C)C)C(=O)N[C@H](C#N)Cc1ccc(-c2ccc3oc(=O)n(CCN4CCOCC4)c3c2)cc1 [Compound 309]	–	≤ 76.5%	≤ 40%
CO[C@@H](CN(C)C)C(=O)N[C@H](C#N)Cc1ccc(-c2ccc(CN3CCN(C)CC3)cc2)cc1 [Compound 310]	–	76.5 to 93.9%	≤ 40%
CO[C@@H](CN(C)C)C(=O)N[C@H](C#N)Cc1ccc(-c2ccc3oc(=O)n(C)c3c2)cc1 [Compound 311]	–	76.5 to 93.9%	≤ 40%
CO[C@@H](CN(C)C)C(=O)N[C@H](C#N)Cc1ccc(-c2ccc3c(n2)CCCN3)cc1 [Compound 312]	–	≤ 76.5%	≤ 40%
CO[C@@H](CN(C)C)C(=O)N[C@H](C#N)Cc1ccc(-c2ccc3c(c2)C2(CC3)CCN(C)CC2)cc1F [Compound 313]	–	≤ 76.5%	≥ 66.7%
CO[C@@H](CN(C)C)C(=O)N[C@H](C#N)Cc1ccc(-c2ccc3c(c2)C2(CCCN(C)C2)C(=O)N3C)cc1F (stereo partly shown) [Compound 314]	–	≥ 93.9%	40 to 66.7%
CO[C@@H](CN(C)C)C(=O)N[C@H](C#N)Cc1ccc(-c2ccc3oc(=O)n(CCN(C)C)c3c2)cc1F [Compound 315]	–	≤ 76.5%	≥ 66.7%
CN(C)C[C@H](O)C(=O)NC(C#N)Cc1cc2c(cc1F)-c1cc(C#N)ccc1CO2 (stereo partly shown) [Compound 340]	–	–	≤ 40%
